Read-outs that look alike come from different tables or passages of the source. e = 2'-O-(2-methoxyethyl) (MOE); d = 2'-deoxy (DNA)
Legend:
BALB/c mice = details: mouse, in vivo
[1] = tested on: extrinsic pathway of blood coagulation; assay: Prothrombin Time (PT) in platelet poor plasma of treated mice, reported as INR; assay type: in vivo, mouse
Method: (§1) Prothrombin Time (PT) and Activated Partial Thromboplastin Time (aPTT) were measured using platelet poor plasma (PPP) from mice treated with ISIS 403102. PT and aPTT values provided in Table 20 are reported as International Normalized Ratio (INR) values. INR values for PT and aPTT were determined by dividing the PT or aPTT value for the experimental group by the PT or aPTT for the PBS treated group. This ratio was then raised to the power of the International Sensitivity Index (ISI) of the tissue factor used.
as §1, with “in Table 22 are reported” for “in Table 20 are reported”, “experimental group (i.e. 50 mg/kg treatment with ISIS 403102) by the” for “experimental group by the”
as §1, with “in Table 24 are reported” for “in Table 20 are reported”, “experimental group (i.e. 50 mg/kg treatment with ISIS 403102) by the” for “experimental group by the”

CCATAGAACAGCTTCACAGG (sugars from the 5' end e5 d10 e5, backbone and methylation of C not given here) [ISIS 403102]
amount of bleeding in comparison to PBS treated mice (BALB/c mice): slight decrease in the amount of bleeding | bleeding as compared to PBS control mice (BALB/c mice): did not significantly affect bleeding | Blood (BALB/c mice; sc, 25 mg/kg): 0.06 g | Blood (BALB/c mice; sc, 37.5 mg/kg): 0.06 g | Blood (BALB/c mice; sc, 40 mg/kg): 0.10 g | bleeding compared to PBS treated mice (BALB/c mice; sc, 40 mg/kg): less bleeding than PBS treated mice | Blood (BALB/c mice; sc, 50 mg/kg): 0.10 g | amount of bleeding in comparison to PBS treated mice (BALB/c mice; sc, 50 mg/kg): Bleeding was the same | PT INR ([1]; BALB/c mice, 5 mg/kg s.c. twice a week for 3 weeks): 1.09 | PT INR ([1]; BALB/c mice, 10 mg/kg s.c. twice a week for 3 weeks): 1.33 | PT INR ([1]; BALB/c mice, 25 mg/kg s.c. twice a week for 3 weeks): 2.33 | PT INR ([1]; BALB/c mice, 50 mg/kg s.c. twice a week for 3 weeks): 4.37 | PT INR ([1]; BALB/c mice, 50 mg/kg, 1 dose, 1 day after last dose): 1.04 | PT INR ([1]; BALB/c mice, 50 mg/kg, 1 dose, 3 days after last dose): 1.20 | PT INR ([1]; BALB/c mice, 50 mg/kg, 2 doses, 3 days after last dose): 1.43 | PT INR ([1]; BALB/c mice, 50 mg/kg, 4 doses, 3 days after last dose): 2.13 | PT INR ([1]; BALB/c mice, 50 mg/kg, 6 doses, 2 days after last dose): 1.64 | PT INR ([1]; BALB/c mice, 50 mg/kg, 6 doses, 7 days after last dose): 2.08 | PT INR ([1]; BALB/c mice, 50 mg/kg, 6 doses, 14 days after last dose): 1.37 | PT INR ([1]; BALB/c mice, 50 mg/kg, 6 doses, 28 days after last dose): 0.96 | PT INR ([1]; BALB/c mice, 50 mg/kg, 6 doses, 42 days after last dose): 1.00 | PT INR ([1]; BALB/c mice, 50 mg/kg, 6 doses, 56 days after last dose): 0.99 | PT INR ([1]; BALB/c mice, single dose 50 mg/kg, day 1): 1.11 | PT INR ([1]; BALB/c mice, single dose 50 mg/kg, day 2): 1.64 | PT INR ([1]; BALB/c mice, single dose 50 mg/kg, day 3): 1.81 | PT INR ([1]; BALB/c mice, single dose 50 mg/kg, day 4): 1.97 | PT INR ([1]; BALB/c mice, single dose 50 mg/kg, day 6): 1.59 | PT INR ([1]; BALB/c mice, single dose 50 mg/kg, day 8): 1.55 | PT INR ([1]; BALB/c mice, single dose 50 mg/kg, day 12): 1.30 | PT INR ([1]; BALB/c mice, single dose 50 mg/kg, day 24): 1.12 | PT INR ([1]; BALB/c mice, single dose 50 mg/kg, day 56): 1.10 | PT compared to the control ([1]; Example 11, 5-50 mg/kg sc twice a week for 3 weeks): significantly prolonged | PT over time ([1]; Example 13, 6 doses, day 7 to day 56): PT decreased | PT INR ([1]; single dose 50 mg/kg, day 1): 1.11 INR | PT INR ([1]; single dose 50 mg/kg, day 4): 1.97 INR | PT INR ([1]; single dose 50 mg/kg, day 56): 1.10 INR

From US20120214862A1, “MODULATION OF FACTOR 7 EXPRESSION” (ISIS Pharmaceuticals, Inc., priority 2009, published 2012)
